Experimental data from patent US7420001B2 (Wyeth, priority 2003, dated 2008).

What was measured:
[1] = molecular target: T1, MMP-2 (Homo sapiens, UniProt P08253); assay: In-vitro fluorescence assay of MMP-2 activity; format: biochemical; details: recombinant human MMP-2; read-out: MMP-2 IC50
T1 construct: purchased Oncogene Research Products (Calbiochem) PF023
T1 sequence (P08253 110-660): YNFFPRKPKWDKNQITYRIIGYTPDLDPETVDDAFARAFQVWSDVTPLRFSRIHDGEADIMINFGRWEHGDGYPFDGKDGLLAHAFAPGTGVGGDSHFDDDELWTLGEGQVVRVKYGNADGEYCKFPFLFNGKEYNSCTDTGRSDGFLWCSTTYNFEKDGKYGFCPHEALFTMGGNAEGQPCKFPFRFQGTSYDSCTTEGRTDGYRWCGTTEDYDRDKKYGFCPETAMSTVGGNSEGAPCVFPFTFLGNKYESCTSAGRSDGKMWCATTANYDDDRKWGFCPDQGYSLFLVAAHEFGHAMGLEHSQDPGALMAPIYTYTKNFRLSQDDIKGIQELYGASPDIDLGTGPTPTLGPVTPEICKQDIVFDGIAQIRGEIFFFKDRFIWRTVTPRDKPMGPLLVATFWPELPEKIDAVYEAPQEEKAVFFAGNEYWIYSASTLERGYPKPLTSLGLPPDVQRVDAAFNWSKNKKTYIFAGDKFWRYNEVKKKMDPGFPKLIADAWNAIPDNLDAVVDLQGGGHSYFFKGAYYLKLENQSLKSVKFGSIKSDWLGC

[2] = molecular target: T2, MMP-14 (Homo sapiens, UniProt P50281); assay: In-vitro fluorescence assay of MMP-14 activity; format: biochemical; details: recombinant human catalytic domain of MMP-14
T2 construct: 20 kDa; purchased Chemicon International, Inc. CC 1041
Method: A continuous assay was used in which the substrate is a synthetic peptide containing a fluorescent group (7-methoxycoumarin; Mca) which is quenched by energy transfer to a 2,4-dinitrophenyl group. […] The substrate used was Mca-PQGL-(3-[2,4-dinitrophenyl]-L-2,3-diaminopropionyl)-AR-OH (denoted as Wammp-5, custom synthesized by AnaSpec, Inc.). The assay buffer consisted of 50 mM Hepes (pH 7.4), 100 mM NaCl, 5 mM CaCl2, and 0.005% Brij-35. […] The enzymatic reactions were initiated by adding the substrate to a final concentration of 20 μM, and mixing 10 times with a pipette. The final DMSO concentration in the assay was 6.0%.
(§1) Plots of the inhibitor concentration vs. the percent inhibition were fit to the following equation: y=(a−d)/[1+(x/c)^b]+d, a general sigmoidal curve with Hill slope, a to d. x is the inhibitor concentration under test. y is the percent inhibition. a is the limiting response as x approaches zero. As x increases without bound, y tends toward its limit d. c is the inflection point (IC50) for the curve. That is, y is halfway between the lower and upper asymptotes when x=c. b is the slope factor or Hill coefficient.

[3] = molecular target: T3, MMP-9 (Homo sapiens, UniProt P14780); assay: MMP-9 activity assay; format: biochemical; details: recombinant human MMP-9
T3 construct: Active, recombinant human MMP-9 (83 kDa) was purchased from Calbiochem (catalog #PF024); purchased Calbiochem PF024
T3 sequence (P14780 107-707 limits assumed): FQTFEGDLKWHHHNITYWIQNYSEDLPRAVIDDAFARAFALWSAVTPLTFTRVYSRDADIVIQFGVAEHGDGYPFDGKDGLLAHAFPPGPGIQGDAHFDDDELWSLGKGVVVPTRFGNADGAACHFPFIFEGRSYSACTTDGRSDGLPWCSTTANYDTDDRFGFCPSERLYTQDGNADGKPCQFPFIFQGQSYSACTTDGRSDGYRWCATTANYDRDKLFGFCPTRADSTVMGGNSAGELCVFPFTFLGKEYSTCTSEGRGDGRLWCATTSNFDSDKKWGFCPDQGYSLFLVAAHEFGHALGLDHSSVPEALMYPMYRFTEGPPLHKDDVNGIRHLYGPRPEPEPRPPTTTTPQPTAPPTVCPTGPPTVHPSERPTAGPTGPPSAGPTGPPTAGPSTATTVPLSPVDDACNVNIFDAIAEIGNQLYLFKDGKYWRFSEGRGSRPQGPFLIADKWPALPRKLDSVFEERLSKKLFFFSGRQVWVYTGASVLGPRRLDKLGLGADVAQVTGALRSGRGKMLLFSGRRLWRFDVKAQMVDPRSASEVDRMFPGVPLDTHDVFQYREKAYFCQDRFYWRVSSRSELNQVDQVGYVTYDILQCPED
Method: (§2) A continuous assay was used in which the substrate is a synthetic peptide containing a fluorescent group (7-methoxycoumarin; Mca) that is quenched by energy transfer to a 2,4-dinitrophenyl group. […] The concentration of the substrate stock was spectrophotometrically determined using the extinction coefficient at 410 nm of 7500 M^−1cm^−1. The assay buffer (pH 7.4) consisted of 50 mM Hepes, 100 mM NaCl, 5 mM CaCl2, and 0.005% Brij-35. Each well of black polystyrene 96-well plates contained a reaction consisting of assay buffer, purified MMP (final concentration of 1.0 nM, prepared by dilution with assay buffer), and varied concentrations of inhibitor (prepared by serial dilution in DMSO in 96-well polypropylene plates). The plates were then incubated at room temperature for 30 minutes. […] The final DMSO concentration in the assay was 10% and the final, total assay volume was 200 μl. […] Plots of the inhibitor concentration vs. the initial cleavage rate were fit to the following equation in order to determine IC50 values: y=Vmax*(1−(x^n/(K^n+x^n))), whereby x=inhibitor concentration, y=initial rate, Vmax=initial rate in the absence of inhibitor, n=slope factor, and K=IC50 for the inhibition curve.
Active, recombinant human MMP-9 (83 kDa) was purchased from Calbiochem (catalog #PF024).

[4] = molecular target: T4, Aggrecanase-1 (Homo sapiens, UniProt O75173); assay: Aggrecanase-1 FRET assay; format: biochemical; details: rAgg1, WAAG-3R substrate; read-out: AGG-1 IC50
T4 sequence (O75173 213-837): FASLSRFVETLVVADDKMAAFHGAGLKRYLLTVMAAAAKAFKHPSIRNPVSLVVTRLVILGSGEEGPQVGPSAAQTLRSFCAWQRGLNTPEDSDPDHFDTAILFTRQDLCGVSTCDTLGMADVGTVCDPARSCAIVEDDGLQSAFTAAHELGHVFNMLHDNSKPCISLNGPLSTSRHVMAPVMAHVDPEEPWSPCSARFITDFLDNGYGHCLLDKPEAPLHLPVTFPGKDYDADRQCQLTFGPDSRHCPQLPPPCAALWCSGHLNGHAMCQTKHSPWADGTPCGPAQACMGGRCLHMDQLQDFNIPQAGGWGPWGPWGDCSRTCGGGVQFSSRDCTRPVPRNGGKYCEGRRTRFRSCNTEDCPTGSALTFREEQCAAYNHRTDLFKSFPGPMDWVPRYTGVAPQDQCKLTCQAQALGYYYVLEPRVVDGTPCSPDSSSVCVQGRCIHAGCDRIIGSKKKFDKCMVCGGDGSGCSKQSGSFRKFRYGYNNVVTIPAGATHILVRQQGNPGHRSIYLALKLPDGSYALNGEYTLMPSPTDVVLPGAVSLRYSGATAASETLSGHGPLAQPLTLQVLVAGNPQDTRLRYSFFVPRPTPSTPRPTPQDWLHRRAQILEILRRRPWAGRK
Method: h. Aggrecanase-1 FRET Assay:
The following protocol was used: • Fluorimeter was started and temperature set to 30° C., about 30 min before setting up the assay. The following reagents are used: • Buffer: 50 mM HEPES, pH 7.5, 100 mM NaCl, 5 mM CaCl2, 0.1% CHAPS, 5% glycerol. • rAgg1: 5 μg/ml (final concentration in the assay): • Substrate: WAAG-3R (MWT=1645.8, Anaspec, stored at 4° C.). Make a stock at 2 mg/ml in 100% DMSO. Measure the absorbance at 354 nm (ε=18172 M^−1 cm^−1) to determine the exact concentration. Dilute to 62.5 μM in buffer. Store unused 100% DMSO stock at −80° C. Final concentration of substrate in the assay is 25 μM. […] Make up inhibitors at 10× starting concentration in 100% DMSO. Perform serial dilutions (in duplicate) across the nunc plate in 100% DMSO; • Dilution plates: Nunc, polypropylene low binding (Nalgene) • Assay plate: Fluoronunc (Nalgene) • Fluorimeter: GeminiXS (Molecular Devices).; • The assay is performed as follows: The plates are set up so that the final column (12) is used for controls. Total reaction volume is 100 μl. Each compound is assayed in duplicate, so 4 compounds are screened per plate. • 1) Add buffer to the entire 96-well plate (30 ρl/well). • 2) Dilute rAgg1 to 25 μg/ml buffer just prior to addition on the plate. Add 20 μl/well to all wells. Mix 6 times. • 3) Add 10 μl/well of 10× inhibitors from the working plate, except column 12. Mix 6 times. […] Mix 6 times.
The reaction is monitored for 30-40 min at 30° C. λex: 340 nm and λ em: 420 nm). The fluorescence is linear during this time and the slope of the line (Vmax/sec) represents the initial reaction rate, ν. The maximal rate of cleavage of substrate is determined in the absence of inhibitor. The percent inhibition of activity in the presence of inhibitor is calculated as follows:
[formula] The IC50 was obtained by fitting the initial rate, ν, or % inhibition at each concentration of inhibitor to the following equation in Excel. y=(a−d)/(1+C/IC50)^n)+d This model describes a sigmoidal curve with an adjustable baseline, […]. y is the % inhibition or initial rate of reaction, C is the concentration of inhibitor under test. a is the limiting response as C approaches zero. […] The sign of n is positive when the response increases with increasing dose and is negative when the response decreases with increasing dose (inhibition).

[5] = molecular target: T5, MMP-7 (Homo sapiens, UniProt P09237); assay: MMP-7 activity assay; format: biochemical; details: recombinant human MMP-7
T5 construct: Active, recombinant human MMP-7 was purchased from Calbiochem (catalog #444270; expressed in E. coli, 19 kDa); purchased Calbiochem 444270; host or cells: E. coli
T5 sequence (P09237 95-267): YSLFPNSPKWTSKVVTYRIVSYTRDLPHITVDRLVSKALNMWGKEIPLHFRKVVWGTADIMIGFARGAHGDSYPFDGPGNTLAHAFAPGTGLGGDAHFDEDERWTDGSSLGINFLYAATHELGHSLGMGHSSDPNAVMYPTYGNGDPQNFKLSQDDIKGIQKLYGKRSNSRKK
Method: as §2

[6] = molecular target: T6, MMP-1 (Homo sapiens, UniProt P03956)
T6 sequence (P03956 100-269 limits assumed): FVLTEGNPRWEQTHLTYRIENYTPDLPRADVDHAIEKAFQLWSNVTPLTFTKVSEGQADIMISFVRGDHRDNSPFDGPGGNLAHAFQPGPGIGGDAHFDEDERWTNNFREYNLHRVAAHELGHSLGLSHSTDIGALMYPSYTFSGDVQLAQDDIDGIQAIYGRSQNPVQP
Method: A continuous assay was used in which the substrate is a synthetic peptide containing a fluorescent group (7-methoxycoumarin; Mca) which is quenched by energy transfer to a 2,4-dinitrophenyl group. […] The substrate used was Mca-PQGL-(3-[2,4-dinitrophenyl]-L-2,3-diaminopropionyl)-AR-OH (denoted as Wammp-5, custom synthesized by AnaSpec, Inc.). The assay buffer consisted of 50 mM Hepes (pH 7.4), 100 mM NaCl, 5 mM CaCl2, and 0.005% Brij-35. Each well of black polystyrene 96-well plates contained a 200 μL reaction mixture consisting of assay buffer, purified MMP (final concentration of 25 ng/ml, prepared by diluting with the assay buffer), and varied concentrations of inhibitor (prepared by serially diluting a given inhibitor in DMSO in 96-well polypropylene plate). […] The enzymatic reactions were initiated by adding the substrate to a final concentration of 20 μM, and mixing 10 times with a pipette. The final DMSO concentration in the assay was 6.0%.
as §1

[7] = molecular target: T7, MMP-13 (Homo sapiens, UniProt P45452); assay: In-vitro fluorescence assay of MMP-13 activity; format: biochemical; details: recombinant human catalytic domain of MMP-13; read-out: MMP-13 IC50
T7 construct: made in house

[8] = molecular target: T8, MMP-12 (Homo sapiens, UniProt P39900); assay: In vitro fluorescence assay of MMP-12 activity; format: biochemical; details: recombinant human MMP-12
T8 construct: made in house
T8 sequence (P39900 106-280 limits assumed): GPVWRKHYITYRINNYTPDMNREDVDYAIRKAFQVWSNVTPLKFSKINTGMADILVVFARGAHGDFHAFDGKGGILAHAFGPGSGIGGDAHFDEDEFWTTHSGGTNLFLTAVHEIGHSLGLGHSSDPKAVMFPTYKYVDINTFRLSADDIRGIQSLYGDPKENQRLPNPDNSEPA
Method: A continuous, assay was used in which the substrate is a synthetic peptide containing a fluorescent group (7-methoxycoumarin; Mca) which is quenched by energy transfer to a 2,4-dinitrophenyl group. […] The concentration of the substrate stock was spectrophotometrically determined using the extinction coefficient at 410 nm of 7500 M^−1cm^−1. The assay buffer (pH 7.4) consisted of 50 mM Hepes, 100 mM NaCl, 5 mM CaCl2, and 0.005% Brij-35. […] The plates were then incubated at room temperature for 30 minutes. The enzymatic reactions were initiated by adding substrate to a final concentration of 20 μM and they were mixed by pipetting up and down. The final DMSO concentration in the assay was 10% and the final, total assay volume was 200 μl.

SMILES	IC50 [1]	IC50 [2]	IC50 [3]	IC50 [4]	IC50 [5]	IC50 [6]	IC50 [7]	IC50 [8]
COCCCc1cccc2oc(C(=O)Nc3ccc(-c4ccc(S(=O)(=O)N[C@H](C(=O)O)C(C)C)cc4)cc3)c(C)c12 [Example 30, L-2-(4′-{[4-(3-Methoxy-propyl)-3-methyl-benzofuran-2-carbonyl]-amino}-biphenyl-4-sulfonylamino)-3-methyl-butyric acid]	4000 nM	26200 nM	1500 nM	14000 nM	6000 nM	> 18000 nM	11 nM	85 nM
CCC(C)Oc1cccc2oc(C(=O)Nc3ccc(-c4ccc(S(=O)(=O)N[C@H](C(=O)O)C(C)C)cc4)cc3)c(C)c12 (stereo partly drawn) [Example 53, L-2-{4′-[(4-sec-Butoxy-3-methyl-benzofuran-2-carbonyl)-amino]-biphenyl-4-sulfonylamino}-3-methyl-butyric acid]	10000 nM	–	> 4000 nM	–	2600 nM	–	17 nM	–
COc1c(Br)ccc2oc(COc3ccc(-c4ccc(S(=O)(=O)N[C@@H](C(=O)O)C(C)C)cc4)cc3)c(C)c12 [Example 136, D-2-[4′-(5-Bromo-4-methoxy-3-methyl-benzofuran-2-ylmethoxy)-biphenyl-4-sulfonylamino]-3-methyl-butyricacid]	135 nM	5000 nM	> 7000 nM	430 nM	1100 nM	400000 nM	1.8 nM	20 nM
